# Results as given in patent US20250197420A1, “MACROCYCLIC COMPOUNDS, COMPOSITIONS, AND METHODS OF USING THEREOF” (Sionna Therapeutics Inc., priority 2022, published 2025).
# Target: T1, Purified recombinant NBD1 (Homo sapiens, UniProt P13569)
# T1 construct: Purified recombinant NBD1 was produced using previously described methods; made in house
# Assay: Aggregation analysis using differential static light scattering (DSLS): thermal stability of NBD1
# Format: binding
# Settings: NBD1 0.2 mg/ml; Tagg of compound well minus average Tagg of DMSO control wells
# Method: Purified recombinant NBD1 was produced using previously described methods (A. Schmidt, J. L. Mendoza, P. J. Thomas (2011) Biochemical and Biophysical Approaches to Probe CFTR Structure (365-376) M. D. Amaral, K. Kunzelmann (eds.), Cystic Fibrosis, Methods in Molecular Biology 741, Springer Science+Business Media). The effect of test compounds on thermal stability of NBD1 was evaluated by differential static light scattering (DSLS) using the Harbinger Stargazer-384 instrument (Epiphyte Three, Toronto, Canada). Test compounds were dissolved and diluted to desired concentrations in 100% DMSO. The compounds or DMSO controls (100 nL) were stamped into wells of a […] low volume optical plate (Corning Inc., Corning, NY) using the Echo 555 acoustic liquid handler (Labcyte Inc., San Jose, CA).
# NBD1 protein was diluted to 0.2 mg/ml in S200 buffer (50 mM Tris-HCl, 150 mM NaCl, 5 mM MgCl2, 2 mM ATP, 2 mM DTT, pH7.6) containing 1% glycerol. 10 uL of protein solution was aliquoted into the 384-well plate harboring the test compounds and 10 uL mineral oil was overlaid onto the protein solution, using the epMotion robotic liquid handler (Eppendorf North America, Hauppauge, NY). After placing into the Stargazer instrument, the plate was heated at 1° C. per minute to 70° C. Images were captured from 25° C. to 70° C. every 0.5° C. At the end of the experiment run, instrument software integrated image files and analyzed data automatically. A […] regression curve was generated for each well, representing the increase in light scattering over time. A temperature of aggregation (Tagg) was calculated based on the inflection point of the curve. To better compare data across experiments the average Tagg for DMSO control wells was calculated and subtracted from values for wells containing compounds to obtain a “ΔTagg” value. These ΔTagg values reflect stabilizing efficacy of the compounds. As set forth in Table 2 below, an ΔTagg value less than or equal to 5° C. is marked “A”; a value above 5° C. and less than or equal to 10° C. is marked “B”; a value greater than 10° C. and less than or equal to 25° C. is marked “C”.
# T1 sequence (P13569 423-646 limits assumed): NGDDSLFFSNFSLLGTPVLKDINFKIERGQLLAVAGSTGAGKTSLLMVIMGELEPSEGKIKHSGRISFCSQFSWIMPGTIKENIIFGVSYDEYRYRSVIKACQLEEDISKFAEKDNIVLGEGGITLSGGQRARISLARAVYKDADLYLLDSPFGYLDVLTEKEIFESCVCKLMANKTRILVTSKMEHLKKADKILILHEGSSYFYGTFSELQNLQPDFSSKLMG
row,SMILES,DSLS (ΔTagg)
1,"CN1CCOCC(C)(c2cccc(CCC(=O)O)c2)c2cnc([nH]2)-c2cc(ccc2F)Oc2c(F)cc3[nH]ccc3c2CCC1=O (stereo not drawn) [Compound 19, 3-[3-(22,28-Difluoro-6,11-dimethyl-12-oxo-8,24-dioxa-3,11,19,30-tetrazapentacyclo[23.3.1.12,5.015,23.016,20]triaconta-1(29),2,4,15,17,20,22,25,27-nonaen-6-yl)phenyl]propanoic acid]",C (a value greater than 10 °C and less than or equal to 25 °C is marked “C”)
2,"CC(CC(=O)O)c1cccc(C2CCCCCN(C)C(=O)CCc3c(c(F)cc4[nH]ccc34)Oc3ccc(F)c(c3)-c3ncc2[nH]3)c1 (stereo not drawn) [Compound 21, 3-[3-(23,29-Difluoro-12-methyl-13-oxo-25-oxa-3,12,20,31-tetrazapentacyclo[24.3.1.12,5.016,24.017,21]hentriaconta-1(30),2,4,16,18,21,23,26,28-nonaen-6-yl)phenyl]butanoic acid]",C (a value greater than 10 °C and less than or equal to 25 °C is marked “C”)
3,"CC(Cc1cccc(C2CCCCCN(C)C(=O)CCc3c(c(F)cc4[nH]ccc34)Oc3ccc(F)c(c3)-c3ncc2[nH]3)c1)C(=O)O (stereo not drawn) [Compound 22, 3-[3-(23,29-Difluoro-12-methyl-13-oxo-25-oxa-3,12,20,31-tetrazapentacyclo[24.3.1.12,5.016,24.017,21]hentriaconta-1(30),2,4,16,18,21,23,26,28-nonaen-6-yl)phenyl]-2-methyl-propanoic acid]",C (a value greater than 10 °C and less than or equal to 25 °C is marked “C”)
4,"CC1CNC(=O)CCc2c(c(F)cc3[nH]ccc23)Oc2ccc(F)c(c2)-c2ncc([nH]2)C(C)(c2cccc(CCC(=O)O)c2)COC1 (stereo not drawn) [Compound 23, 3-[3-(23,29-Difluoro-6,10-dimethyl-13-oxo-8,25-dioxa-3,12,20,31-tetrazapentacyclo[24.3.1.12,5.016,24.017,21]hentriaconta-1(30),2,4,16,18,21,23,26,28-nonaen-6-yl)phenyl]propanoic acid]",C (a value greater than 10 °C and less than or equal to 25 °C is marked “C”)
5,"CC1(c2cccc(CCC(=O)O)c2)CCC(=O)NCCCCc2c(c(F)cc3[nH]ccc23)Oc2ccc(F)c(c2)-c2ncc1[nH]2 (stereo not drawn) [Compound 24, 3-[3-(22,28-Difluoro-6-methyl-9-oxo-24-oxa-3,10,19,30-tetrazapentacyclo[23.3.1.12,5.015,23.016,20]triaconta-1(29),2,4,15,17,20,22,25,27-nonaen-6-yl)phenyl]propanoic acid]",C (a value greater than 10 °C and less than or equal to 25 °C is marked “C”)
6,"CC1(c2ccccc2)CCC(=O)NCCCCc2c(c(F)cc3[nH]ccc23)Oc2ccc(F)c(c2)-c2ncc1[nH]2 (stereo not drawn) [Compound 25, 22,28-Difluoro-6-methyl-6-phenyl-24-oxa-3,10,19,30-tetrazapentacyclo[23.3.1.12,5.015,23.016,20]triaconta-1(29),2,4,15,17,20,22,25,27-nonaen-9-one]",B (a value above 5 °C and less than or equal to 10 °C is marked “B”)
7,"CC1(C)CCC(c2cccc(CCC(=O)O)c2F)c2cnc([nH]2)-c2cc(ccc2F)Oc2c(F)cc3[nH]ccc3c2CCC(=O)NC1 (stereo not drawn) [Compound 32, 3-[3-(22,28-Difluoro-9,9-dimethyl-12-oxo-24-oxa-3,11,19,30-tetrazapentacyclo[23.3.1.12,5.015,23.016,20]triaconta-1(29),2,4,15,17,20,22,25,27-nonaen-6-yl)-2-fluoro-phenyl]propanoic acid]",B (a value above 5 °C and less than or equal to 10 °C is marked “B”)
8,"[2H]C([2H])([2H])n1nc2nc1-c1cc(ccc1F)Oc1c(F)cc3[nH]ccc3c1CCC(=O)N(C)CC(C)(C)CCCC2(C)c1cccc(CCCO)c1 (stereo not drawn) [Compound 78, 23,29-difluoro-6-[3-(3-hydroxypropyl)phenyl]-6,10,10,12-tetramethyl-3-(trideuteriomethyl)-25-oxa-3,4,12,20,31-pentazapentacyclo-[24.3.1.12,5.016,24.017,21]hentriaconta-1(30),2(31),4,16,18,21,23,26,28-nonaen-13-one]",A (an ΔTagg value less than or equal to 5 °C is marked “A”)
9,"O=C(O)CCc1cccc(C2CCCCOC(=O)NCCc3c(c(F)cc4[nH]ccc34)Oc3ccc(F)c(c3)-c3ncc2[nH]3)c1F (stereo not drawn) [Compound 81, 3-[3-(23,29-Difluoro-12-oxo-11,25-dioxa-3,13,20,31-tetrazapentacyclo[24.3.1.12,5.016,24.017,21]hentriaconta-1(30),2,4,16(24),17(21),18,22,26,28-nonaen-6-yl)-2-fluoro-phenyl]propanoic acid]",C (a value greater than 10 °C and less than or equal to 25 °C is marked “C”)
10,"O=C1NCCc2c(c(F)cc3[nH]ccc23)Oc2ccc(F)c(c2)-c2ncc([nH]2)C(c2ccccc2F)CCCCO1 (stereo not drawn) [Compound 82, 23,29-Difluoro-6-(2-fluorophenyl)-11,25-dioxa-3,13,20,31-tetrazapentacyclo[24.3.1.12,5.016,24.017,21]hentriaconta-1(30),2,4,16(24),17(21),18,22,26,28-nonaen-12-one]",A (an ΔTagg value less than or equal to 5 °C is marked “A”)
11,"CN1CC(O)CCCC(C)(c2cccc(CCC(=O)O)c2)c2cnc([nH]2)-c2cc(ccc2F)Oc2c(F)cc3[nH]ccc3c2CCC1=O (stereo not drawn) [Compound 104, 3-[3-(23,29-Difluoro-10-hydroxy-6,12-dimethyl-13-oxo-25-oxa-3,12,20,31-tetrazapentacyclo[24.3.1.12,5.016,24.017,21]hentriaconta-1(30),2,4,16,18,21,23,26,28-nonaen-6-yl)phenyl]propanoic acid]",C (a value greater than 10 °C and less than or equal to 25 °C is marked “C”)
12,"CN1CC(=O)CCCC(C)(c2cccc(CCC(=O)O)c2)c2cnc([nH]2)-c2cc(ccc2F)Oc2c(F)cc3[nH]ccc3c2CCC1=O (stereo not drawn) [Compound 105, 3-[3-(23,29-Difluoro-6,12-dimethyl-10,13-dioxo-25-oxa-3,12,20,31-tetrazapentacyclo[24.3.1.12,5.016,24.017,21]hentriaconta-1(30),2,4,16,18,21,23,26,28-nonaen-6-yl)phenyl]propanoic acid]",C (a value greater than 10 °C and less than or equal to 25 °C is marked “C”)
